Test results taken from patent US8193213B2, “Spermicidal and/or antifungal composition and methods of using the same” (priority 2003, dated 2012).
Marks after values point to notes of the source that are not given here. Blank lines part the entries; values can stand above or below the compound they belong to.

Tests used:
adult male Swiss mice = test: Antispermatogenic screen: single gavage dose to male mice, testes weight and Spermatogenic Index at 72 h; assay type: in vivo; details: racemic compounds, day 3 (72 h), vehicle 90% water, 7% Tween20, 3% ethanol
Procedure: The compounds of the invention were tested in mice for their effects on spermatogenesis three days after a single oral dose by the procedure described in Cook et al (1995) below. Compounds active in this test have been shown also to be anti-fertility compounds.
Compounds were screened for antispermatogenic activity by dosing male mice on day 1 with a gavage dose of control vehicle, positive control (compound 1) or compound of the invention. At 72 h after dosing, animals were killed and the testes were excised, trimmed of fat, and weighed. One testis was examined histologically and rated for spermatogenic potential using the Spermatogenic Index (J. M. Whitsett, P. F. Noden, J. Cherry and A. D. Lawton, J. Reprod. Fertil., 72, 277 (1984), which is a semiquantitative estimate of the sperm producing ability of the testes The index is based on histological appearance of the spermatogenic cells in the seminiferous tubules. A scale of 1 to 6 is used with 5 to 6 being the normal status. A second assessment was based on the weight of the testes.
Tables 1 and 2 show pertinent biological results in terms of the change in testes weight (TW) and spermatogenic index (SI) relative to a control containing only the administration vehicle, but no indenopyridine. In Tables 1 and 2, R^3 and R^4 refer to structures Ib, where R^3 is in the para position; R^1 is ethyl; R^2 is methyl; and R^5 is hydrogen.

Candida albicans = test: Antifungal susceptibility testing (NCCLS, MIC/MFC) against C. albicans; assay type: cell-based; parameters: Lowest [Active]: unit not given here; details: for CFU for MFC at 100 / CFU for MFC at 200 / CFU for MFC at 300 / Lowest [Active]: C. albicans (19 hours); for CFU for MFC at 100: concentration 100; for CFU for MFC at 200: concentration 200; for CFU for MFC at 300: concentration 300; for Lowest [Active]: concentrations 300, 200, 100, unit not given, N/A = no active concentration; for Lowest MIC: C. albicans, lowest concentration that appears to have no growth
Procedure: (§1) Antifungal susceptibility testing was performed following the NCCLS guidelines with minor modifications. Briefly, a suspension of Candida albicans cells was prepared from pure cultures grown overnight on yeast-malt extract (YM) agar at 35° C. Several small colonies were removed from a YM agar plate and transferred to 5 ml of 0.85% saline. The cells were suspended by 15 seconds of vortexing and the cell density of the resulting suspension was determined using a spectrophotometer. The cell density was adjusted by addition of 0.85% saline until the transmittance matched that of a 0.5 McFarland standard when measured at a wavelength of 530 nm. An aliquot of this suspension was diluted 1:1000 in RPMI-MOPS to yield a working suspension. A similar suspension of Aspergillus fumigatus spores was obtained by using spores stored at […] in 0.85% saline. These spores were diluted in 0.85% saline to match the McFarland standard transmittance. This suspension was then further diluted 1:50 in RPMI-MOPS to produce the working inoculum suspension.
(§2) Dilution series of the test compounds were made in RPMI-MOPS containing 2% DMSO. An aliquot of each dilution was added in duplicate to the wells of a sterile 96-well, flat bottom microtiter plate. Then, an aliquot of either the C. albicans cell suspension or the A. fumigatus spore suspension were added to each well for a final volume of 200 μl. The plates were then incubated at […]. […] A similar determination was made for the A. fumigatus plates after 48 hours. […] The numbers of colony forming units (CFU) were counted and these values used to calculate the percent survival of cells or spores in inocula relative to the number of CFUs in the working inoculum suspension. The minimum fungicidal concentration (MFC) was the lowest concentration of test compound with a percent survival of less than 2%.

Aspergillus fumigatus = test: Antifungal susceptibility testing (NCCLS, MIC/MFC) against A. fumigatus; assay type: cell-based; parameters: Lowest [Active]: unit not given here; details: for CFU for MFC at 100 / CFU for MFC at 200 / CFU for MFC at 300 / Lowest [Active]: A. fumigatus (48 hours); for CFU for MFC at 100: concentration 100; for CFU for MFC at 200: concentration 200; for CFU for MFC at 300: concentration 300; for Lowest [Active]: concentrations 300, 200, 100, unit not given, N/A = no active concentration; for Lowest MIC: lowest concentration that appears to have no growth
Procedure: as §1, §2

rabbit ejaculated sperm = test: Direct effect on sperm motility, rabbit ejaculated sperm; assay type: cell-based; details: for Motility (%) at 60 Minutes: rabbit ejaculate diluted 1:10, 34° C., control 76.6
Procedure: (§3) Method for Determining Direct Effect of an Agent on Sperm Motility The direct effect of an agent on sperm motility was determined by using the following protocols. Basically, sperm are obtained either from the cauda epididymis, as in the case of the rat, or ejaculated sperm collected using an artificial vagina, as in the rabbit. The initial motility of the sperm is determined manually or by using a Hamilton Thorn IVOS sperm analyzer. The sperm are then kept at a constant temperature of 34° C., diluted to a consistent concentration of 10×10^6/ml, and added to about 3 ml of buffer or media. The motility is determined again at this point and any change is recorded. Different concentrations of the agent to be tested are then added to the sperm preparation. The sperm samples are then held at the same temperature for one hour and the motility is determined. The results are recorded as the percent of motile sperm in the sample. The Sperm were kept at 34° C. throughout the experimental period. Sperm concentration was be approximately 10×10^6/ml (note, the sample may have had to be diluted with buffer or media to reach this concentration). For the Rabbit Studies: (Using Ejaculated Sperm) A 1 mM stock of the indenopyridine in M-199 media with BSA (2.5 mg in 5=0.5 ug/ul; 0.5 ug/ml=1 uM) was prepared and added as follows: 1 uM=1 ul stock+949 ul M-199 media with BSA+50 ul of the diluted sperm 3 uM=3 ul stock+947 ul M-199 media with BSA+50 ul of the diluted sperm 10 uM=10 ul stock+940 ul M-199 media with BSA+50 ul of the diluted sperm 30 uM=30 ul stock+920 ul M-199 media with BSA+50 ul of the diluted sperm 100 uM=100 ul stock+850 ul M-199 media with BSA+50 ul of the diluted sperm 300 uM=300 ul stock+650 ul M-199 media with BSA+50 ul of the diluted sperm 1000 uM=1000 ul stock+50 ul of the diluted sperm Sperm motility was determined after 1 hour. Slides were made to determine morphology changes and eosin was added to determine cell death.

rat cauda sperm = test: Direct effect on sperm motility, rat cauda epididymis sperm; assay type: cell-based; details: control: progressive motility
Procedure: as §3, with “the Rat” for “the Rabbit”, “(Using Sperm from the Cauda Epididymis)” for “(Using Ejaculated Sperm)”, “in HBSS buffer+BSA (5” for “in M-199 media with BSA (2.5”, “in 10=0.5” for “in 5=0.5”, “ul HBSS buffer+BSA+50” for “ul M-199 media with BSA+50”, “Sperm Motility” for “Sperm motility”

- melting point: 204 °C
SMILES: CCN1CC[C@@H]2[C@@H](c3ccc(C(=O)OC)cc3)c3cc(C)ccc3[C@@H]2C1.Cl (racemic)

- melting point: 280 °C (dec.)
SMILES: CCN1CC[C@@H]2[C@@H](c3ccc(C(=O)O)cc3)c3cc(C)ccc3[C@@H]2C1.Cl (racemic) [Compound 2, (4aRS,5SR,9bRS)-2-Ethyl-2,3,4,4a,5,9b-hexahydro-7-methyl-5-(4-carboxyphenyl)-1H-indeno[1,2-c]pyridine Hydrochloride]
- SI change (%) (Spermatogenic Index, % change from vehicle control) (adult male Swiss mice; 10 mg/kg single gavage dose): −24%*
- TW change (%) (testes weight, % change from vehicle control) (adult male Swiss mice; 10 mg/kg single gavage dose): 2%
- SI change (%) (Spermatogenic Index, % change from vehicle control) (adult male Swiss mice; 30 mg/kg single gavage dose): −52%*
- TW change (%) (testes weight, % change from vehicle control) (adult male Swiss mice; 30 mg/kg single gavage dose): −7%

- melting point: > 190 °C (dec.)
SMILES: CCN1CC[C@@H]2[C@@H](c3ccc(C(=O)OC)cc3)c3cc(C)c(I)cc3[C@@H]2C1.Cl (racemic) [Compound 18, (4aRS,5SR,9bRS)-2-Ethyl-2,3,4,4a,5,9b-hexahydro-8-iodo-7-methyl-5-(4-carbomethoxyphenyl)-1H-indeno[1,2-c]pyridine Hydrochloride]
- SI change (%) (Spermatogenic Index, % change from vehicle control) (adult male Swiss mice; 1 mg/kg single gavage dose): −57%*
- TW change (%) (testes weight, % change from vehicle control) (adult male Swiss mice; 1 mg/kg single gavage dose): −16%
- SI change (%) (Spermatogenic Index, % change from vehicle control) (adult male Swiss mice; 3 mg/kg single gavage dose): −69%*
- TW change (%) (testes weight, % change from vehicle control) (adult male Swiss mice; 3 mg/kg single gavage dose): −27%*
- SI change (%) (Spermatogenic Index, % change from vehicle control) (adult male Swiss mice; 10 mg/kg single gavage dose): −74%*
- TW change (%) (testes weight, % change from vehicle control) (adult male Swiss mice; 10 mg/kg single gavage dose): −36%*

SMILES: CCN1CCC2C(C1)c1cc(I)c(C)cc1C2c1ccc(C(=O)OC)cc1.Cl (stereo not drawn) [Compound 4587-073d]
- CFU for MFC at 100 (Candida albicans): Static (Static = well looked clear, but <98% killed)
- CFU for MFC at 200 (Candida albicans): Cidal (Cidal = >98% killed)
- CFU for MFC at 300 (Candida albicans): Cidal (Cidal = >98% killed)
- Lowest [Active] (Candida albicans): 100
- CFU for MFC at 100 (Aspergillus fumigatus): Cidal (Cidal = >98% killed)
- CFU for MFC at 200 (Aspergillus fumigatus): Cidal (Cidal = >98% killed)
- CFU for MFC at 300 (Aspergillus fumigatus): Cidal (Cidal = >98% killed)
- Lowest [Active] (Aspergillus fumigatus): 100

SMILES: CCN1CCC2C(C1)c1cc(I)c(C)cc1C2c1ccc(C(=O)OC)cc1.Cl (stereo not drawn) [Compound 4587-073l]
- Motility (%) at 60 Minutes (rabbit ejaculated sperm; +1 μM): 73.0%
- Motility (%) at 60 Minutes (rabbit ejaculated sperm; +3 μM): 68.4%
- Motility (%) at 60 Minutes (rabbit ejaculated sperm; +10 μM): 67.6%
- Motility (%) at 60 Minutes (rabbit ejaculated sperm; +30 μM): 61.9%
- Motility (%) at 60 Minutes (rabbit ejaculated sperm; +100 μM): 15.2 * %
- Motility (%) at 60 Minutes (rabbit ejaculated sperm; +300 μM): 0%
- Motility (%) at 60 Minutes (rabbit ejaculated sperm; +1000 μM): 0 ** %
- Quality of motility (footnote *) (rabbit ejaculated sperm; rabbit sperm, +100 μM, 60 minutes): * Motility not progressive - twitching
- Sperm appearance (rabbit ejaculated sperm; rabbit sperm, +1000 μM, 60 minutes): ** Sperm appeared to be “disintegrating”- sperm heads contain many vacuoles and membranes are not always intact
- Motility (%) at 60 Minutes (in words) (rat cauda sperm; +1 μM): Progressive motility-equal to control
- Motility (%) at 60 Minutes (in words) (rat cauda sperm; +3 μM): Progressive motility diminished
- Motility (%) at 60 Minutes (in words) (rat cauda sperm; +10 μM): No progressive motility - twitching
- Motility (%) at 60 Minutes (in words) (rat cauda sperm; +30 μM): Same as for 10 μM
- Motility (%) at 60 Minutes (in words) (rat cauda sperm; +100 μM): Death
- CFU for MFC at 100 (Candida albicans): Cidal (Cidal = >98% killed)
- CFU for MFC at 200 (Candida albicans): Cidal (Cidal = >98% killed)
- CFU for MFC at 300 (Candida albicans): Cidal (Cidal = >98% killed)
- Lowest [Active] (Candida albicans): 100
- CFU for MFC at 100 (Aspergillus fumigatus): Cidal (Cidal = >98% killed)
- CFU for MFC at 200 (Aspergillus fumigatus): Cidal (Cidal = >98% killed)
- CFU for MFC at 300 (Aspergillus fumigatus): Cidal (Cidal = >98% killed)
- Lowest [Active] (Aspergillus fumigatus): 100

SMILES: CCN1CCC2=C(c3ccc(OC)cc3)c3cc(C)ccc3C2C1.Cl (stereo not drawn) [Compound 4587-082]
- Lowest MIC (Candida albicans): >100 µg/mL
- Lowest MIC (Aspergillus fumigatus; A. fumigatus): 100 µg/mL
- Lowest MFC (Aspergillus fumigatus; A. fumigatus, lowest concentration that kills >= 98% of the cells in the well): 100 µg/mL

SMILES: CC(=O)N1CCN(c2ccc(OCC3COC(Cn4ccnc4)(c4ccc(Cl)cc4Cl)O3)cc2)CC1 (stereo not drawn) [Ketaconazole, reference compound]
- Lowest MIC (Candida albicans): 32 µg/mL
- Lowest MIC (Aspergillus fumigatus; A. fumigatus): 8 µg/mL
